One experiment concerns Foxo1. The experiment is described as follows: Foxo1 expression in gastrocnemius tissue, forced oral administration test. The format is in vivo, mice. The note with it: 200 mg/kg QG or equivalent amount of quercetin, with DEX 10 mg/L in drinking water, compared to the DEX group, FIG. 4. On the procedure: (§1) Thereafter, for the purpose of a detailed analysis of the molecular mechanisms, the expression of genes involved in muscle atrophy in gastrocnemius tissue was analyzed. RNA was extracted from the cryopreserved gastrocnemius samples using ISOGEN (Nippon Gene Co., Ltd.) and the RNeazy Mini Kit (Qiagen). Then, cDNA synthesis was conducted using the High-Capacity cDNA Reverse Transcriptional Kits (Applied biosystems). Based on the constructed cDNAs, the messenger RNA (mRNA) levels of the muscle atrophy-related genes (Atrogin-1, MuRF-1, Foxo1, Redd1, and Mstn) and the control gene (18SrRNA) were determined by quantitative reverse transcription PCR using the TaqMan Fast Universal PCR Master Mix (Applied biosystems). The values obtained were expressed as mean±standard deviation. The differences in average gene expression levels between the DEX group and each of the DEX+QG groups were analyzed by Student's t-test, with p-values below 5% being considered significant. BALB/c male mice aged 7 weeks were habituated for one week, and then allowed to ingest 10 mg/L dexamethasone (DEX) in drinking water ad libitum. […] The differences in average gene expression levels between the DEX group and each of the DEX+QG group and the DEX+Q group were analyzed by Dunnett's test, with p-values below 5% being considered significant.

The subject of a further experiment is Redd1. Description: Redd1 expression in gastrocnemius tissue, forced oral administration test. The format is in vivo, mice. The note with it: 200 mg/kg QG or equivalent amount of quercetin, with DEX 10 mg/L in drinking water, compared to the DEX group, FIG. 4. The procedure: as §1
In a further experiment the test system is MuRF-1. The experiment is described as follows: MuRF-1 expression in gastrocnemius tissue, forced oral administration test. The format is in vivo, mice. The note with it: 200 mg/kg QG or equivalent amount of quercetin, with DEX 10 mg/L in drinking water, compared to the DEX group, FIG. 4. On the procedure: as §1
A further experiment relates to BALB/c male mice. The experiment is described as follows: Dexamethasone-induced muscle atrophy, forced oral administration test, gastrocnemius weight/body weight ratio. Type of experiment: in vivo. The note with it: 200 mg/kg QG or equivalent amount of quercetin in terms of rutin, with DEX 10 mg/L in drinking water, compared to the DEX group, FIG. 3. The procedure: BALB/c male mice aged 7 weeks were habituated for one week, and then allowed to ingest 10 mg/L dexamethasone (DEX) in drinking water ad libitum. Next, 200 mg/kg quercetin glycoside (QG) and an equivalent amount of quercetin (Q) in terms of rutin were each suspended in milliQ water containing 0.5% carboxymethyl cellulose sodium salt, and the suspensions were each forcibly administered orally […] to the mice for five days (from Monday to Friday). Then, administration of 10 mg/L DEX in drinking water was started from Friday. In the next week, forced oral QG/Q administration was resumed (from Monday to Thursday) concurrently with DEX administration in drinking water, and the mice were dissected on Friday. Sample collection after the administration test, muscle atrophy evaluation based on gastrocnemius weight (GW)/body weight (BW) ratio, and gene expression level analysis in gastrocnemius tissue were performed according to the procedures described in Examples 1 and 2. The differences in average gene expression levels between the DEX group and each of the DEX+QG group and the DEX+Q group were analyzed by Dunnett's test, with p-values below 5% being considered significant.

Structures are written as SMILES.

With `O=c1c(O)c(-c2ccc(O)c(O)c2)oc2cc(O)cc(O)c12` [quercetin], the “expression of Foxo1 increased by DEX administration” value with Foxo1 is on record as “not effective in inhibiting the expression”. For the same compound, in the experiment with Redd1, the “expression of Redd1 increased by DEX administration” value is given as “not effective in inhibiting the expression”. Besides, in the experiment with MuRF-1, the “expression of MuRF-1 increased by DEX administration” value is “not effective in inhibiting the expression”. Further, the “GW/BW ratio (gastrocnemius weight divided by body weight)” value in the experiment on BALB/c male mice is “not effective in improving the GW/BW ratio”.

The record behind these values is patent US20170042924A1, “MUSCLE ATROPHY INHIBITOR CONTAINING QUERCETIN GLYCOSIDE” (SUNTORY HOLDINGS LIMITED, priority 2014, published 2017).
